For 28 compounds, IC50 results are on record in patent US10851053B2, “Chemical compounds” (GlaxoSmithKline Intellectual Property Development Limited, priority 2016, dated 2020).

pIC50: −log10 of the molar value. “And” between values parts separate entries of the source, which are not always exact repeats. Equal entries are not always repeated.

What is called pIC50 is −log10 of the IC50, conventionally taken in molar units.

The assay concerns ATF4 translation (ATF4 pathway), SH-SY5Y-ATF4-NanoLuc cells. The assay is described as follows: ATF4 cell based assay (ATF4 5'-UTR NanoLuc luciferase reporter, Thapsigargin induced cellular stress). The conditions noted are these: SH-SY5Y-ATF4-NanoLuc cells challenged with Thapsigargin for 14-18 hours; average of two or more experimental runs; read-out: average ATF4 pathway inhibitory activity (IC50). The text has this: The ATF4 reporter assay measures the effect of Thapsigargin induced cellular stress on ATF4 expression. For this reporter assay, a stable cell line was created by transfecting SH-SY5Y cells with a plasmid containing the NanoLuc® luciferase gene fused to the 5′-UTR of ATF4, under the control of the CMV promoter. The ATF4 5′-UTR contains two open reading frames which mediate the cellular stress-dependent translation of the reporter gene. Clones stably expressing the reporter construct were isolated and selected based on the luminescence response to thapsigargin and inhibition of this signal by test compounds. Briefly, SH-SY5Y-ATF4-NanoLuc cells were challenged with Thapsigargin for 14-18 hours to determine the stress effect with or without test compounds.
Cells were propagated in growth media consisting of 90% DMEM F12 (InVitrogen #11320-033), 10% Fetal Bovine Serum (Gibco #10438-026), 5 mM Glutamax (Gibco #35050-061), 5 mM Hepes, (Gibco #15630-080), and 0.5 mg/ml Geneticin (Gibco #10131-027). Cells were prepared for the assay by removing all media from cells, washing the plated cells with phosphate buffered saline, and detached by adding a solution comprised of 10% Tryple express solution (InVitrogen12604-021) and 90% enzyme-free cell dissociation buffer HANKS base (Gibco 13150-016). The trypsin was deactivated by adding assay media comprised of 90% phenol-red free DMEM F12 (InVitrogen, 11039), 10% Fetal Bovine Serum (Gibco #10438-026), (5 mM Glutamax (Gibco #35050-061), 5 mM Hepes, (Gibco #15630-080), and 0.5 mg/ml Geneticin (Gibco #10131-027). Suspended cells were spun down at 300 g for 5 min, the supernatant was removed and the cell pellet was suspended in warm media (30-37° C.) comprised as above at (1e6 cell/ml).
Assay plates were prepared by adding 250 nL of compound stock solution in 100% DMSO to each well, followed by dispensing 20 microliters/well cell suspension to deliver 15-20 k cell/well. Cells were incubated for 1 hour at 37° C. Then, 5 μL of 1.5 μM or 1 μM of Thapsigargin (final concentration: 200-300 nM) was added to each well of cells. Assay plates containing cells were incubated for 14-18 hours at 37° C.
The measurement of luciferase produced by the ATF4 constructs was measured as follows. Aliquots of the Nano-Glo reagent (Nano-Glo® Luciferase Assay Substrate, Promega, N113, Nano-Glo® Luciferase Assay Buffer, Promega, N112 (parts of Nano-Glo® Luciferase Assay System, N1150) were brought to room temperature, the substrate and buffer were mixed according to manufacturer's instructions. The cell plates were equilibrated to room temperature. 25 microliters/well of the mixed Nano-Glo reagent were dispensed into assay wells and pulse spun to settle contents and the plate was sealed with film. The plates were incubated at room temperature for 1 hour before detecting luminescence on an Envision plate reader.
Compounds of the invention are tested for activity against ATF4 translation in the above assay.
In general terms: A reporter such as luciferase makes a cellular process visible.
In the case of `O=C(COc1ccc(Cl)cc1)NOC1CCN(C(=O)C2CC2c2ccc(Cl)cc2)C1` (stereo not shown) [Example 34, 2-(4-chlorophenoxy)-N-((1-(2-(4-chlorophenyl)cyclopropane-1-carbonyl)pyrrolidin-3-yl)oxy)acetamide], the pIC50 is 6.00 to 7.00.
Regarding `O=C(COc1ccc(Cl)cc1)NOC1CCN(C(=O)CCOc2ccc(Cl)cc2)C1` (stereo not shown) [Example 35, 2-(4-chlorophenoxy)-N-((1-(3-(4-chlorophenoxy)propanoyl)pyrrolidin-3-yl)oxy)acetamide], the pIC50 is above 7.00.
For the compound `O=C(COc1ccc(Cl)cc1)NCC1(F)CCN(C(=O)COc2ccc(Cl)cc2)C1` (stereo not shown) [Example 36, 2-(4-chlorophenoxy)-N-((1-(2-(4-chlorophenoxy)acetyl)-3-fluoropyrrolidin-3-yl)methyl)acetamide], the pIC50 was 6.00 to 7.00.
As for `O=C(COc1ccc(Cl)cc1)N[C@H]1[C@@H]2CN(C(=O)C3CC3c3ccc(Cl)cc3)C[C@@H]21` (stereo partly drawn) [Example 37, 2-(4-chlorophenoxy)-N-((1R,5S,6s)-3-(2-(4-chlorophenyl)cyclopropane-1-carbonyl)-3-azabicyclo[3.1.0]hexan-6-yl)acetamide], the figure is > 7.00 and 7.16; as for `O=C(COc1ccc(Cl)cc1)NCC1CCN(C(=O)CCCc2ccc(Cl)cc2)C1` (stereo not shown) [Example 38, 2-(4-chlorophenoxy)-N-((1-(4-(4-chlorophenyl)butanoyl)pyrrolidin-3-yl)methyl)acetamide], above 7.00.
Under `CC1CC(CNC(=O)COc2ccc(Cl)cc2)CN1C(=O)COc1ccc(Cl)cc1` (stereo not shown) [Example 39, 2-(4-chlorophenoxy)-N-((1-(2-(4-chlorophenoxy)acetyl)-5-methylpyrrolidin-3-yl)methyl)acetamide] stands 6.00 to 7.00; under `O=C(COc1ccc(Cl)cc1)NCC1CCN(C(=O)C2CC2c2ccc(Cl)cc2)C1` (stereo not shown) [Example 40, 2-(4-chlorophenoxy)-N-((1-(2-(4-chlorophenyl)cyclopropanecarbonyl)pyrrolidin-3-yl)methyl)acetamide], above 7.00.
`O=C(COc1ccc(Cl)cc1)NCC1(F)CCN(CCOc2ccc(Cl)cc2)C1` (stereo not shown) [Example 42, 2-(4-chlorophenoxy)-N-((1-(2-(4-chlorophenoxy)ethyl)-3-fluoropyrrolidin-3-yl)methyl)acetamide]: the pIC50 was 6.00 to 7.00.
Take `CC1(CNC(=O)COc2ccc(Cl)cc2)CCN(CCOc2ccc(Cl)cc2)C1` (stereo not shown) [Example 43, 2-(4-chlorophenoxy)-N-((1-(2-(4-chlorophenoxy)ethyl)-3-methylpyrrolidin-3-yl)methyl)acetamide]: the pIC50 is above 7.00.
In the case of `O=C(COc1ccc(Cl)c(Cl)c1)NCC1CCN(CCCOc2ccc(Cl)cc2)C1` (stereo not shown) [Example 44, N-((1-(3-(4-chlorophenoxy)propyl)pyrrolidin-3-yl)methyl)-2-(3,4-dichlorophenoxy)acetamide], the pIC50 is above 7.00.
On to `O=C(COc1ccc(C(F)(F)F)cc1)NCC1CCN(CCCOc2ccc(Cl)cc2)C1` (stereo not shown) [Example 45, N-((1-(3-(4-chlorophenoxy)propyl)pyrrolidin-3-yl)methyl)-2-(4-(trifluoromethyl)phenoxy)acetamide], for which the negative-log IC50 (pIC50) is above 7.00.
Turning to `O=C(COc1ccc(F)cc1Cl)NCC1CCN(CCCOc2ccc(Cl)cc2)C1` (stereo not shown) [Example 46, 2-(2-chloro-4-fluorophenoxy)-N-((1-(3-(4-chlorophenoxy)propyl)pyrrolidin-3-yl)methyl)acetamide], the pIC50 is 6.00 to 7.00.
As to `Cc1cc(OCC(=O)NCC2CCN(CCCOc3ccc(Cl)cc3)C2)ccc1Cl` (stereo not shown) [Example 47, 2-(4-chloro-3-methylphenoxy)-N-((1-(3-(4-chlorophenoxy)propyl)pyrrolidin-3-yl)methyl)acetamide], the negative-log IC50 (pIC50) was above 7.00.
As for `O=C(COc1ccc(Cl)cc1)NCC1CCN(CCCOc2ccc(F)cc2)C1` (stereo not shown) [Example 49, 2-(4-chlorophenoxy)-N-((1-(3-(4-fluorophenoxy)propyl)pyrrolidin-3-yl)methyl)acetamide], the figure is 6.00 to 7.00.
For the compound `O=C(COc1ccc(Cl)cc1)NCC1CCN(CCCOc2cccc(Cl)c2)C1` (stereo not shown) [Example 50, 2-(4-chlorophenoxy)-N-((1-(3-(3-chlorophenoxy)propyl)pyrrolidin-3-yl)methyl)acetamide], the negative logarithm of the IC50 (pIC50) is 6.00 to 7.00.
Take `O=C(COc1ccc(Cl)nc1)N[C@H]1[C@@H]2CN(CCCOc3ccc(Cl)cc3)C[C@@H]21` [Example 51, N-((1R,5S,6s)-3-(3-(4-chlorophenoxy)propyl)-3-azabicyclo[3.1.0]hexan-6-yl)-2-((6-chloropyridin-3-yl)oxy)acetamide]: the pIC50 is above 7.00.
As to `O=C(COc1ccc(Cl)cn1)N[C@H]1[C@@H]2CN(CCCOc3ccc(Cl)cc3)C[C@@H]21` [Example 52, N-((1R,5S,6s)-3-(3-(4-chlorophenoxy)propyl)-3-azabicyclo[3.1.0]hexan-6-yl)-2-((5-chloropyridin-2-yl)oxy)acetamide], the pIC50 was above 7.00.
As for `O=C(COc1ccc(Cl)cc1)N[C@H]1[C@@H]2CN(CCCOc3ccc(Cl)cn3)C[C@@H]21` [Example 53, 2-(4-chlorophenoxy)-N-((1R,5S,6s)-3-(3-((5-chloropyridin-2-yl)oxy)propyl)-3-azabicyclo[3.1.0]hexan-6-yl)acetamide], the negative logarithm of the IC50 (pIC50) was 6.00 to 7.00.
Take `O=C(COc1ccc(Cl)c(F)c1)NCC1CCN(CCCOc2ccc(Cl)cc2)C1` (stereo not shown) [Example 55, 2-(4-chloro-3-fluorophenoxy)-N-((1-(3-(4-chlorophenoxy)propyl)pyrrolidin-3-yl)methyl)acetamide]: the pIC50 is above 7.00.
Under `O=C(COc1ccc(Cl)cn1)NCC1CCN(CCCOc2ccc(Cl)cc2)C1` (stereo not shown) [Example 56, N-((1-(3-(4-chlorophenoxy)propyl)pyrrolidin-3-yl)methyl)-2-((5-chloropyridin-2-yl)oxy)acetamide] stands 6.00 to 7.00; under `Cc1cc(OCCCN2CCC(CNC(=O)COc3ccc(Cl)cc3)C2)ccc1Cl` (stereo not shown) [Example 57, N-((1-(3-(4-chloro-3-methylphenoxy)propyl)pyrrolidin-3-yl)methyl)-2-(4-chlorophenoxy)acetamide], above 7.00; under `CC1C[C@H](CNC(=O)COc2ccc(Cl)cc2)CN1CCCOc1ccc(Cl)cc1` (stereo partly drawn) [Example 58, 2-(4-chlorophenoxy)-N-(((3R)-1-(3-(4-chlorophenoxy)propyl)-5-methylpyrrolidin-3-yl)methyl)acetamide], 6.00 to 7.00.
As for `O=C(COc1ccc(Cl)cc1)NCC1(F)CCN(CCCOc2ccc(Cl)cc2)C1` (stereo not shown) [Example 60, 2-(4-chlorophenoxy)-N-((1-(3-(4-chlorophenoxy)propyl)-3-fluoropyrrolidin-3-yl)methyl)acetamide], the figure is 6.00 to 7.00; as for `O=C(COc1ccc(Cl)cc1)NCC1CCN(CCCOc2ccc(Cl)c(Cl)c2)C1` (stereo not shown) [Example 61, 2-(4-chlorophenoxy)-N-((1-(3-(3,4-dichlorophenoxy)propyl)pyrrolidin-3-yl)methyl)acetamide], above 7.00.
For `O=C(COc1ccc(Cl)cc1)NCC1CCN(CCCOc2ccc(Cl)cc2F)C1` (stereo not shown) [Example 62, N-((1-(3-(4-chloro-2-fluorophenoxy)propyl)pyrrolidin-3-yl)methyl)-2-(4-chlorophenoxy)acetamide], the pIC50 was above 7.00.
As for `O=C(COc1ccc(Cl)cc1)NCC1CCN(CCCOc2ccc(C(F)(F)F)cc2)C1` (stereo not shown) [Example 63, 2-(4-chlorophenoxy)-N-((1-(3-(4-(trifluoromethyl)phenoxy)propyl)pyrrolidin-3-yl)methyl)acetamide], the pIC50 is 6.00 to 7.00.
Under `O=C(COc1ccc(Cl)cc1)NCC1CCN(CCCOc2ccc(Cl)c(F)c2)C1` (stereo not shown) [Example 64, N-((1-(3-(4-chloro-3-fluorophenoxy)propyl)pyrrolidin-3-yl)methyl)-2-(4-chlorophenoxy)acetamide] stands 6.00 to 7.00 and 6.90; under `O=C(COc1ccc(Cl)cc1)N[C@H]1[C@@H]2CN(CCCOc3ccc(Cl)nc3)C[C@@H]21` [Example 65, 2-(4-chlorophenoxy)-N-((1R,5S,6s)-3-(3-((6-chloropyridin-3-yl)oxy)propyl)-3-azabicyclo[3.1.0]hexan-6-yl)acetamide], 6.00 to 7.00.
